Converted amounts (≈) assume the structure as drawn. Read-outs that look alike come from different tables or passages of the source.
Columns and labels:
Type in all cases: cell-based
[1] = test system: HIV-1 III B virus; assay: Anti-HIV activity assay (P24 antigen in MT-4 cells); details: for IC50: Human immunodeficiency virus 1, MT4, 96 h, read-out: HIV IC50; for anti-HIV viral activity: statement in words
[2] = test system: Influenza A virus (hanfang359/95); assay: Determination of anti-influenza virus activity (CPE in MDCK cells); details: for IC50: Influenza A virus, MDCK, 36 h; for anti-influenza virus activities compared with the lead compound cajanine: statement in words
[3] = test system: Coxsackie virus B6; assay: Coxsackie virus activity assay (CPE in Vero cells); details: Vero
[4] = test system: PC12 cells; assay: Neuroprotective activity assay, rotenone injury to PC12 cells (MTT); details: for viability at 10 µM: Rattus norvegicus, PC-12, 48 h, read-out: rotenone (surviving PC12 cells, MTT 570 nm); for protective effect on rotenone injury to PC12 cells: statement in words
Description: (§1) Discard the original culture media from confluent monolayers of PC12 cells (simulated neuronal cells), add DMEM complete medium with 5% FBS, 5% horse serum gently beat upon the cells with a pipette to completely disperse them, inoculate 100 μl cell suspension at a density of […] per well to 96 hole plates treated with poly-lysine (0.1 mg/ml) in advance, culture for 24h. Divide the experimenting cells into control group, model group and dosing groups. Add complete medium to the control group. Model groups includes rotenone group and serum-deprived group, add rotenone to the corresponding modules with a final concentration of 4 μM rotenone to take effect on the cells for 48 h, add serum-deprived groups with serum-free DMEM medium to take effect on the cells for 48 h. Dosing groups also includes two groups, one using rotenone module as model, another using serum-deprived module as model, and both add in 10 μM test compounds during modeling. 48h later, add 10 μl 5 mg/ml MTT, subsequently discard the supernatant 4h later and add in 150 μl DMSO, measure 570 nm absorbance to represent the numbers of surviving cells.

[5] = test system: PC12 cells; assay: Neuroprotective activity assay, serum-deprived injury to PC12 cells (MTT); details: for viability at 10 µM: Rattus norvegicus, PC-12, 48 h, read-out: serum-deprived (surviving PC12 cells, MTT 570 nm); for protective effect on serum-deprived injury to PC12 cells: statement in words
Description: as §1

[6] = test system: HCV; assay: Anti-hepatitis C virus (HCV) activity assay (HCV RNA in Huh7.5 cells); details: for EC50: Hepatitis C virus, Huh7.5, 72 h, read-out: HCV EC50; for anti-HCV viral activity: statement in words
Description: Inoculate Huh7.5 cells into 96-well plates to a density of 3×10^4 cells/cm^2, culture for 24h, infect the cells with 45 IU/cell HCV supernatant, meanwhile, add drug solutions or solvent control for treatment.

[7] = MT-4 cells, HIV-1 III B 100TCID50, 96 h, P24 antigen
[8] = read-out: COX-B6 IC50, Vero cells, about 100TCID50, CPE, Reed-Muench
[9] = 10 μM test compound, 4 μM rotenone, 48 h, Control 100.0 ± 8.9, Model 73.2 ± 7.8
[10] = 10 μM test compound, 48 h, Control 100.0 ± 9.2, Model 69.3 ± 4.1
[11] = Huh7.5 cells, 72 h, HCV RNA by RT-PCR, Reed-Muench

SMILES | IC50 [1, 7] [µg/mL] | IC50 [2] [µg/mL] | IC50 [3, 8] [µg/mL] | viability at 10 µM [4, 9] [%] | viability at 10 µM [5, 10] [%] | EC50 [6, 11] [µg/mL] | anti-influenza virus activities compared with the lead compound cajanine [2] | protective effect on rotenone injury to PC12 cells [4] | protective effect on serum-deprived injury to PC12 cells [5] | anti-HIV viral activity [1] | anti-HCV viral activity [6] | IC50 [1] [µg/mL] | IC50 ([3]; read-out: COX-B6 IC50) [µg/mL] | viability at 10 µM [4] [%] | viability at 10 µM [5] [%] | EC50 [6] [µg/mL]
COC(=O)c1c(/C=C(\C)c2ccccc2)cc(OC)c(CC=C(C)C)c1O [Compound 8i, methyl 2-hydroxy-3-isopentenyl-4-methoxy-6-[(E)-2-phenylpropen-1-yl]-benzoate] | 3.8 (≈ 10.4 µM) | > 2.47 | 6.89 (≈ 18.8 µM) | 69.4 ± 2.6 | 46.4 ± 16.6 | 3.47 (≈ 9.47 µM) | – | – | – | – | – | – | – | – | – | –
COC(=O)c1c(/C=C/CCc2ccccc2)cc(OC)c(CC=C(C)C)c1O [Compound 8l, methyl 2-hydroxy-3-isopentenyl-4-methoxy-6-[(E)-4′-phenylbuten-1′-yl]benzoate] | 5.17 (≈ 13.6 µM) | 5.75 (≈ 15.1 µM) | > 6.17 | 64.7 ± 1.8 | 51.1 ± 17 | 5.95 (≈ 15.6 µM) | – | – | – | – | – | – | – | – | – | –
COC(=O)c1c(/C=C/c2ccccc2)cc(OC)c(C/C=C(\C)CCC=C(C)C)c1O [Compound 8o, methyl 2-hydroxy-3-(3′,7′-dimethyloctadien-2′,6′-yl)-4-methoxy-6-[(E)-styryl]benzoate] | 2.96 (≈ 7.04 µM) | 0.82 (≈ 1.95 µM) | 2.36 (≈ 5.61 µM) | 70.6 ± 6.3 | 69.3 ± 5.6 | 0.92 (≈ 2.19 µM) | significantly stronger than the lead compound cajanine | – | – | – | – | – | – | – | – | –
COC(=O)c1c(/C=C/C2CCCCC2)cc(OC)c(CC=C(C)C)c1O [Compound 8p, methyl 2-hydroxy-3-isopentenyl-4-methoxy-6-[(E)-2-cyclohexyl-vinyl]benzoate] | 21.1 (≈ 58.9 µM) | 10.3 (≈ 28.9 µM) | > 2.06 | 84.6 ± 5.9 | 82.3 ± 5.6 | 11.4 (≈ 31.7 µM) | – | the strongest activities | the strongest activities | – | – | – | – | – | – | –
COC(=O)c1c(/C=C/c2ccc(OC(C)=O)cc2)cc(OC)c(CC=C(C)C)c1O [Compound 8q, methyl 2-hydroxy-3-isopentenyl-4′-methoxy-6-[(E)-4-acetoxystyryl]benzoate] | 2.1 (≈ 5.12 µM) | 8.23 (≈ 20.1 µM) | 5.23 (≈ 12.7 µM) | 80.5 ± 6.5 | 79.8 ± 5.8 | 7.63 (≈ 18.6 µM) | – | the strongest activities | the strongest activities | – | – | – | – | – | – | –
COC(=O)c1c(/C=C/c2ccncc2)cc(OC)c(CC=C(C)C)c1O [Compound 8r] | 4.01 (≈ 11.3 µM) | 4.65 (≈ 13.2 µM) | 6.43 (≈ 18.2 µM) | 69.8 ± 8.4 | 74.5 ± 5.7 | 3.14 (≈ 8.88 µM) | – | – | – | – | – | – | – | – | – | –
COC(=O)/C(=C\c1cc(OC)c(CC=C(C)C)c(O)c1C(=O)OC)c1ccccc1 [Compound 8s] | 0.52 (≈ 1.27 µM) | 0.24 (≈ 0.585 µM) | 3.52 (≈ 8.58 µM) | 76.8 ± 5.4 | 79.8 ± 5.2 | 0.84 (≈ 2.05 µM) | – | – | – | stronger anti-HIV, HCV viral activities | stronger anti-HIV, HCV viral activities | – | – | – | – | –
COC(=O)c1c(/C=C/c2cc(OC)cc(OC)n2)cc(OC)c(CC=C(C)C)c1O [Compound 8x, methyl 2-hydroxy-3-isopentenyl-4-methoxy-6-[(E)-2-(4,6-dimethoxypyrid-2-yl)ethenyl]benzoate] | 0.79 (≈ 1.91 µM) | 0.65 (≈ 1.57 µM) | 4.58 (≈ 11.1 µM) | 76.5 ± 1.8 | 79.8 ± 2.6 | 1.87 (≈ 4.52 µM) | significantly stronger than the lead compound cajanine | – | – | – | – | – | – | – | – | –
COC(=O)c1c(/C=C/c2cccc(OC)n2)cc(OC)c(CC=C(C)C)c1O [Compound 8y, methyl 2-hydroxy-3-isopentenyl-4-methoxy-6-[(E)-2-(6-methoxy-pyrid-2-yl)ethenyl]benzoate] | 6.8 (≈ 17.7 µM) | 2.14 (≈ 5.58 µM) | 7.12 (≈ 18.6 µM) | 48.9 ± 6.5 | 49.8 ± 2.6 | 4.33 (≈ 11.3 µM) | – | – | – | – | – | – | – | – | – | –
COc1cc(/C=C/c2ccccc2)c(C(=O)OCC(O)CO)c(O)c1CC=C(C)C (stereo not shown) [Compound 9e, 2,3-dihydroxypropyl2-hydroxy-3-isopentenyl-4-methoxy-6-[(E)-styryl]benzoate] | 0.73 (≈ 1.77 µM) | 0.1 (≈ 0.242 µM) | 0.21 (≈ 0.509 µM) | 90.8 ± 4.3 | 91.3 ± 2.4 | 0.66 (≈ 1.6 µM) | significantly stronger than the lead compound cajanine | the strongest activities | the strongest activities | stronger anti-HIV, HCV viral activities | stronger anti-HIV, HCV viral activities | – | – | – | – | –
COc1cc(/C=C/c2ccccc2)c(C(=O)NC2CCNCC2)c(O)c1CC=C(C)C [Compound 9f] | 0.14 (≈ 0.333 µM) | 0.31 (≈ 0.737 µM) | 0.24 (≈ 0.571 µM) | 68.5 ± 4.9 | 58.9 ± 2.6 | 6.09 (≈ 14.5 µM) | – | – | – | – | – | – | – | – | – | –
COc1cc(/C=C/c2ccccc2)c(C(=O)Nc2ccccc2)c(O)c1CC=C(C)C [Compound 9g, N-phenyl-2-hydroxy-3-isopentenyl-4-methoxy-6-[(E)-styryl]benzamide] | 0.79 (≈ 1.91 µM) | 0.84 (≈ 2.03 µM) | 1.59 (≈ 3.85 µM) | 87.4 ± 1.9 | 89.4 ± 2.3 | 5.1 (≈ 12.3 µM) | – | the strongest activities | the strongest activities | – | – | – | – | – | – | –
COc1cc(/C=C/c2ccccc2)c(C(=O)Nc2ccc(Cl)cc2)c(O)c1CC=C(C)C [Compound 9h, N-p-chlorophenyl2-hydroxy-3-isopentenyl-4-methoxy-6-[(E)-styryl]benzamide] | 3.38 (≈ 7.55 µM) | 0.47 (≈ 1.05 µM) | 2.98 (≈ 6.65 µM) | 79.8 ± 2.1 | 84.5 ± 5.1 | 1.33 (≈ 2.97 µM) | significantly stronger than the lead compound cajanine | – | – | – | – | – | – | – | – | –
COc1cc(/C=C/c2ccccc2)cc(O)c1CC=C(C)C [Compound 10, Cajanine A] | 0.21 (≈ 0.713 µM) | 0.27 (≈ 0.917 µM) | 0.69 (≈ 2.34 µM) | 69.9 ± 5.8 | 34.7 ± 9.8 | 0.56 (≈ 1.9 µM) | significantly stronger than the lead compound cajanine | – | – | stronger anti-HIV, HCV viral activities | stronger anti-HIV, HCV viral activities | – | – | – | – | –
COc1cc(/C=C/c2ccc(F)cc2)cc(O)c1CC=C(C)C [Compound 10a, 2-isopentenyl-3-methoxy-5-[(E)-(4′-fluorostyryl)]phenol] | – | > 0.69 | – | – | – | – | significantly stronger than the lead compound cajanine | – | – | – | – | 2.02 (≈ 6.47 µM) | 6.32 (≈ 20.2 µM) | 79.8 ± 5.6 | 78.2 ± 4.1 | 1.6 (≈ 5.12 µM)
COc1cc(/C=C/c2ccccc2Cl)cc(O)c1CC=C(C)C [Compound 10b] | – | > 0.23 | – | – | – | – | – | – | – | stronger anti-HIV, HCV viral activities | stronger anti-HIV, HCV viral activities | 0.3 (≈ 0.912 µM) | 6.38 (≈ 19.4 µM) | 74.6 ± 6.3 | 74.8 ± 5.2 | 0.59 (≈ 1.79 µM)

Source: US9359298B2, “Cajanine structure analogous compound, preparation method and use” (INSTITUTE OF MEDICINAL BIOTECHNOLOGY, CHINESE ACADEMY OF …, priority 2011, dated 2016)
